Measurements as given in patent US10759781B2, “Substituted guanidine derivatives” (UBE INDUSTRIES, LTD., priority 2015, dated 2020).
Where a name gives a salt, the structure may show the parent alone.

target: T1, Human VAP-1 enzyme (Homo sapiens, UniProt Q16853); experiment: Human VAP-1 enzyme inhibition test; type: biochemical; conditions: 1 h; compound 30 nM; 14C-benzylamine 100 μM; read-out: inhibition ratio (human VAP-1 enzyme)
T1 construct: purchased R&D Systems, Inc
T1 sequence (Q16853 1-763): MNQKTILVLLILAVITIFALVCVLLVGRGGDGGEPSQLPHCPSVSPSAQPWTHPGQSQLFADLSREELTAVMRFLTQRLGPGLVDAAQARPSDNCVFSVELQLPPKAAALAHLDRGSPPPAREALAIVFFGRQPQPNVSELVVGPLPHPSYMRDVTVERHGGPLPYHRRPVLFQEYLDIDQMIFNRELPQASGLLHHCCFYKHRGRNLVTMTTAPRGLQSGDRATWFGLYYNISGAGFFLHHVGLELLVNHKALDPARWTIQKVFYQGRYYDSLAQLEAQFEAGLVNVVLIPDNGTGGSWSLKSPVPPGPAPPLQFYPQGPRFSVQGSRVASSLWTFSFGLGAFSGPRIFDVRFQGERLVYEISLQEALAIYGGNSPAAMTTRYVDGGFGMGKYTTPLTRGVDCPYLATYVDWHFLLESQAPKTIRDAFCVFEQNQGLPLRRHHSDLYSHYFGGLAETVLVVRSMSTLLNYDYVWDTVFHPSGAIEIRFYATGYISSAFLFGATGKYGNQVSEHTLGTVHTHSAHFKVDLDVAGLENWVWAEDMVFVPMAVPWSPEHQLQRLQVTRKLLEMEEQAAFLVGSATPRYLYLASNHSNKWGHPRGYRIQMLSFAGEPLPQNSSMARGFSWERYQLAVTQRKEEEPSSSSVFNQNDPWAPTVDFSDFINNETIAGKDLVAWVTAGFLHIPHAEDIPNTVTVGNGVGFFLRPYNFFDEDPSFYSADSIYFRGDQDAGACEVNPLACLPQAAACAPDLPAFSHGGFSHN
Experimental: Human VAP-1 enzyme inhibition test
This test was conducted by modifying the method of P. H. Yu et al. (Diabetologia 40 1243 (1997)). Human VAP-1 enzyme (R&D Systems, Inc.) was pre-incubated in a 96-well plate with the compound dissolved in dimethylsulfoxide at room temperature for 20 minutes. Next, in a solution to the final volume of 200 μL, the enzyme reaction solution was incubated with ^14C-benzylamine (final concentration 100 μM) at 37° C. for 1 hour. The reaction was terminated by the addition of 100 μL of 2 M citric acid solution to the reaction solution. The oxidative product was extracted using a toluene/ethyl acetate mixture and the radioactivity was measured with a liquid scintillation counter. The inhibition ratio of the compound was calculated using the following equation. Inhibition ratio={1−[VAP-1 enzyme activity after treatment with the compound]/[VAP-1 enzyme activity in the presence of dimethylsulfoxide alone without the compound]}×100

Inhibition at 0.03 µM, ≥ 50%:
N=C(N)NC(=O)OCc1cccc(-c2cnc(N3CC(=NOCC(F)F)C3)nc2)c1F [Example 6, 3-(2-{3-[(2,2-Difluoroethoxy)imino]azetidin-1-yl}pyrimidin-5-yl)-2-fluorobenzyl carbamimidoylcarbamate]
N=C(N)NC(=O)OCc1cccc(-c2cnc(N3CC(=NOCC(F)(F)F)C3)nc2)c1F [Example 7, 2-Fluoro-3-(2-{3-[(2,2,2-trifluoroethoxy)imino]azetidin-1-yl}pyrimidin-5-yl)benzyl carbamimidoylcarbamate]
N=C(N)NC(=O)OCc1cccc(-c2cnc(N3CC(=NOCCCF)C3)nc2)c1F [Example 8, 2-Fluoro-3-(2-{3-[(3-fluoropropoxy)imino]azetidin-1-yl}pyrimidin-5-yl)benzyl carbamimidoylcarbamate]
CC(=O)OCCON=C1CN(c2ncc(-c3cccc(COC(=O)NC(=N)N)c3F)cn2)C1 [Example 25, 2-[({1-[5-(3-{[(Carbamimidoylcarbamoyl)oxy]methyl}-2-fluorophenyl)pyrimidin-2-yl]azetidin-3-ylidene}amino)oxy]ethyl acetate]
CON=C1CN(c2ncc(-c3cccc(COC(=O)NC(=N)N)c3F)cc2C#N)C1 [Example 43, 3-{5-Cyano-6-[3-(methoxyimino)azetidin-1-yl]pyridin-3-yl}-2-fluorobenzyl carbamimidoylcarbamate]
CON=C1CN(c2ncc(-c3cccc(COC(=O)NC(=N)N)c3F)cc2Cl)C1 [Example 44, 3-{5-Chloro-6-[3-(methoxyimino)azetidin-1-yl]pyridin-3-yl}-2-fluorobenzyl carbamimidoylcarbamate]
CON=C1CN(c2ncc(-c3cccc(COC(=O)NC(=N)N)c3F)cc2C(F)F)C1 [Example 45, 3-{5-(Difluoromethyl)-6-[3-(methoxyimino)azetidin-1-yl]pyridin-3-yl}-2-fluorobenzyl carbamimidoylcarbamate]
CON=C1CN(c2ncc(-c3cccc(COC(=O)NC(=N)N)c3F)cc2C2CC2)C1 [Example 46, 3-{5-Cyclopropyl-6-[3-(methoxyimino)azetidin-1-yl]pyridin-3-yl}-2-fluorobenzyl carbamimidoylcarbamate]
CCc1cc(-c2cccc(COC(=O)NC(=N)N)c2F)cnc1N1CC(=NOC)C1 [Example 47, 3-{5-Ethyl-6-[3-(methoxyimino)azetidin-1-yl]pyridin-3-yl}-2-fluorobenzyl carbamimidoylcarbamate]
COCc1cc(-c2cccc(COC(=O)NC(=N)N)c2F)cnc1N1CC(=NOC)C1 [Example 49, 2-Fluoro-3-{6-[3-(methoxyimino)azetidin-1-yl]-5-(methoxymethyl)pyridin-3-yl}benzyl carbamimidoylcarbamate]
CON=C1CN(c2ncc(-c3cccc(COC(=O)NC(=N)N)c3F)cc2OC)C1 [Example 50, 2-Fluoro-3-{5-methoxy-6-[3-(methoxyimino)azetidin-1-yl]pyridin-3-yl}benzyl carbamimidoylcarbamate]
N=C(N)NC(=O)OCc1cccc(-c2cnc(N3CC(=NOCCO)C3)nc2)c1F [Example 71, 2-Fluoro-3-(2-{3-[(2-hydroxyethoxy)imino]azetidin-1-yl}pyrimidin-5-yl)benzyl carbamimidoylcarbamate hydrochloride]
N=C(N)NC(=O)OCc1cccc(-c2cnc(N3CC(=NOCCCCO)C3)nc2)c1F [Example 73, 2-Fluoro-3-(2-{3-[(4-hydroxybutoxy)imino]azetidin-1-yl}pyrimidin-5-yl)benzyl carbamimidoylcarbamate]
N=C(N)NC(=O)OCc1cccc(-c2cnc(N3CC(=NOCCOCCO)C3)nc2)c1F [Example 74, 2-Fluoro-3-[2-(3-{[2-(2-hydroxyethoxy)ethoxy]imino}azetidin-1-yl)pyrimidin-5-yl]benzyl carbamimidoylcarbamate]
N=C(N)NC(=O)OCc1cccc(-c2cnc(N3CC(=NOCC(CO)CF)C3)nc2)c1F (stereo not drawn) [Example 75, 2-Fluoro-3-[2-(3-{[3-fluoro-2-(hydroxymethyl)propoxy]imino}azetidin-1-yl)pyrimidin-5-yl]benzyl carbamimidoylcarbamate]
COC(CO)CCON=C1CN(c2ncc(-c3cccc(COC(=O)NC(=N)N)c3F)cn2)C1 (stereo not drawn) [Example 76, 2-Fluoro-3-(2-{3-[(4-hydroxy-3-methoxybutoxy)imino]azetidin-1-yl}pyrimidin-5-yl)benzyl carbamimidoylcarbamate]
CC(=O)OCC(CO)CON=C1CN(c2ncc(-c3cccc(COC(=O)NC(=N)N)c3F)cn2)C1 (stereo not drawn) [Example 77, 3-[({1-[5-(3-{[(Carbamimidoylcarbamoyl)oxy]methyl}-2-fluorophenyl)pyrimidin-2-yl]azetidin-3-ylidene}amino)oxy]-2-(hydroxymethyl)propyl acetate]
N=C(N)NC(=O)OCc1cccc(-c2cnc(N3CC(=NOCC(CO)CO)C3)nc2)c1F [Example 92, 2-Fluoro-3-[2-(3-{[3-hydroxy-2-(hydroxymethyl)propoxy]imino}azetidin-1-yl)pyrimidin-5-yl]benzyl carbamimidoylcarbamate]
N=C(N)NC(=O)OCc1cccc(-c2cnc(N3CC(=NOCC(O)CO)C3)nc2)c1F (stereo not drawn) [Example 93, 3-(2-{3-[(2,3-Dihydroxypropoxy)imino]azetidin-1-yl}pyrimidin-5-yl)-2-fluorobenzyl carbamimidoylcarbamate]
COCC(CO)CON=C1CN(c2ncc(-c3cccc(COC(=O)NC(=N)N)c3F)cn2)C1 (stereo not drawn) [Example 100, 2-Fluoro-3-[2-(3-{[3-hydroxy-2-(methoxymethyl)propoxy]imino}azetidin-1-yl)pyrimidin-5-yl]benzyl carbamimidoylcarbamate]
N=C(N)NC(=O)OCc1cccc(-c2cnc(N3CC(=NOCC(F)CO)C3)c(F)c2)c1F (stereo not drawn) [Example 103, 2-Fluoro-3-(5-fluoro-6-{3-[(2-fluoro-3-hydroxypropoxy)imino]azetidin-1-yl}pyridin-3-yl)benzyl carbamimidoylcarbamate]
COCC(O)CON=C1CN(c2ncc(-c3cccc(COC(=O)NC(=N)N)c3F)cn2)C1 (stereo not drawn) [Example 104, 2-Fluoro-3-(2-{3-[(2-hydroxy-3-methoxypropoxy)imino]azetidin-1-yl}pyrimidin-5-yl)benzyl carbamimidoylcarbamate]
N=C(N)NC(=O)OCc1cccc(-c2cnc(N3CC(=NO)C3)c(F)c2)c1F [Example 107, 2-Fluoro-3-{5-fluoro-6-[3-(hydroxyimino)azetidin-1-yl]pyridin-3-yl}benzyl carbamimidoylcarbamate]
CC(C)(C)OC(=O)CON=C1CN(c2ncc(-c3cccc(COC(=O)NC(=N)N)c3F)cn2)C1 [Example 108, tert-Butyl 2-[({1-[5-(3-{[(carbamimidoylcarbamoyl)oxy]methyl}-2-fluorophenyl)pyrimidin-2-yl]azetidin-3-ylidene}amino)oxy]acetate]
CNC(=O)CON=C1CN(c2ncc(-c3cccc(COC(=O)NC(=N)N)c3F)cn2)C1 [Example 111, 2-Fluoro-3-[2-(3-{[2-(methylamino)-2-oxoethoxy]imino}azetidin-1-yl)pyrimidin-5-yl]benzyl carbamimidoylcarbamate]
N=C(N)NC(=O)OCc1cccc(-c2cnc(N3CC(=NOCCC(N)=O)C3)nc2)c1F [Example 112, 3-(2-{3-[(3-Amino-3-oxopropoxy)imino]azetidin-1-yl}pyrimidin-5-yl)-2-fluorobenzyl carbamimidoylcarbamate]
CNC(=O)CCON=C1CN(c2ncc(-c3cccc(COC(=O)NC(=N)N)c3F)cn2)C1 [Example 113, 2-Fluoro-3-[2-(3-{[3-(methylamino)-3-oxopropoxy]imino}azetidin-1-yl)pyrimidin-5-yl]benzyl carbamimidoylcarbamate]
